Structures can show the parent of a compound that is named as a salt.
Tests used:
[1] = system: mouse myopic models (−30D lens on right eye, 0D lens on left eye); test: Axial length measurement in lens-induced myopia mice (spectral domain optical coherence tomography); assay type: in vivo, mice (C57BL6/J); settings: for myopia progression judged by axial length difference −30D vs 0D eyes: eyedrops 0.1 mg/mL once per day; for axial myopia progression judged by axial length difference −30D vs 0D eyes: Experiment 3, eyedrops 0.01% (0.01 mg/mL) once per day
Method: (§1) During the myopia induction period, eyedrops were administered once per day. Phosphate buffered saline (PBS) eyedrops were classified as a control group (Control), and α1-blocker eyedrops were classified as test groups.
(§2) The refractive index and the axial length of the mouse eyeball after three weeks were measured and the amounts of change were calculated. The refractive values were measured by using an infrared photorefractor for mice (fabricated by Prof Schaeffel of University of Tubingen). The more negative the refractive index, the more severe the myopia. The axial lengths were measured by using spectral domain optical coherence tomography (Envisu R4310, manufactured by Leica). The greater the value of the axial length, the greater the severity of myopia.
(§3) The eyedrops were administered once per day for the three weeks of the myopia induction period.
(§4) α1-blocker eyedrops having concentrations (mg of α1-blocker salt contained in 1 mL: mg/mL) of 0.001 (mg/mL), 0.01 (mg/mL), and 0.1 (mg/mL) were used as the eyedrops. The eyedrops were administered once per day for the three weeks of the myopia induction period. The control group was used with PBS eyedrops not containing an α1-blocker, and the α1-blocker eyedrops were eyedrops obtained by containing bunazosin hydrochloride at the predetermined concentrations.
(§5) The PBS (control group), bunazosin eyedrops (bunazosin of 0.01%, bunazosin hydrochloride of 0.01 mg/mL), silodosin eyedrops (silodosin of 0.01%, silodosin of 0.01 mg/mL), and tamsulosin eyedrops (tamsulosin of 0.01%, tamsulosin hydrochloride of 0.01 mg/mL) were used as the eyedrops. The eyedrops were administered once per day for the three weeks of the myopia induction period, as in Experiments 1 and 2. For the control group as well, PBS eyedrops not containing an α1-blocker were used, as in Experiments 1 and 2.

[2] = system: mouse myopic models (−30D lens on right eye, 0D lens on left eye); test: Refractive power measurement in lens-induced myopia mice (infrared photorefractor); assay type: in vivo, mice (C57BL6/J)
Method: as §1, §2, §3, §4, §5

[3] = cited from earlier work
[4] = Experiment 1, eyedrops 0.1 mg/mL once per day for three weeks, amount of change
[5] = Experiment 2, concentration 0.001 mg/mL
[6] = Experiment 2, concentration 0.001 mg/mL, once per day, three weeks
[7] = Experiment 2, concentration 0.01 mg/mL
[8] = Experiment 2, concentration 0.01 mg/mL, once per day, three weeks
[9] = Experiment 2, concentration 0.1 mg/mL
[10] = Experiment 2, concentration 0.1 mg/mL, once per day, three weeks
[11] = Experiment 1, eyedrops 0.1 mg/mL once per day for three weeks of myopia induction, amount of change
[12] = Experiment 1, eyedrops 0.1 mg/mL once per day, three weeks
[13] = Experiment 3, eyedrops 0.01% (0.01 mg/mL) once per day, three weeks

| Compound | axial length, eyes with the 0D lens [1, 4] | axial length, eyes with the −30D lens [1, 4] | myopia progression judged by axial length difference −30D vs 0D eyes ([1]; Experiment 1, three weeks) | axial myopia progression judged by axial length difference −30D vs 0D eyes ([1]; three weeks) | refractive power, eyes with the −30D lens [2, 11] | refractive power, eyes with the 0D lens [2, 4] | myopia progression judged by refractive power difference −30D vs 0D eyes [2, 12] | myopia progression judged by refractive power difference −30D vs 0D eyes [2, 13] | solubility with respect to water [3] | also measured |
| --- | --- | --- | --- | --- | --- | --- | --- | --- | --- | --- |
| CCCC(=O)N1CCCN(c2nc(N)c3cc(OC)c(OC)cc3n2)CC1 [bunazosin] | 0.187±0.019 mm | 0.191±0.026 mm | progression of myopia was suppressed | progression of axial myopia was suppressed | −0.74±4.07 D | 3.65±4.72 D | progression of myopia was suppressed | progression of myopia was suppressed |  | myopia progression judged by axial length [1, 5]: showed an elongation in axial length; axial length, eyes with the 0D lens [1, 6]: 0.196±0.008 mm; axial length, eyes with the −30D lens [1, 6]: 0.228±0.017 mm; myopia progression judged by axial length [1, 7]: progression of myopia was suppressed; axial length, eyes with the 0D lens [1, 8]: 0.192±0.021 mm; axial length, eyes with the −30D lens [1, 8]: 0.209±0.024 mm; myopia progression judged by axial length [1, 9]: progression of myopia was suppressed; axial length, eyes with the 0D lens [1, 10]: 0.180±0.028 mm; axial length, eyes with the −30D lens [1, 10]: 0.189±0.024 mm; myopia progression judged by refractive power [2, 5]: a sufficient myopia progression suppressing effect was not obtained; refractive power, eyes with the 0D lens [2, 6]: −0.33±3.47 D; refractive power, eyes with the −30D lens [2, 6]: −10.90±4.13 D; myopia progression judged by refractive power [2, 7]: progression of myopia was suppressed; refractive power, eyes with the 0D lens [2, 8]: −0.83±3.20 D; refractive power, eyes with the −30D lens [2, 8]: −6.92±4.08 D; myopia progression judged by refractive power [2, 9]: progression of myopia was suppressed; refractive power, eyes with the 0D lens [2, 10]: 3.19±3.76 D; refractive power, eyes with the −30D lens [2, 10]: −1.26±3.28 D |
| COc1cc2nc(N3CCN(C(=O)C4COc5ccccc5O4)CC3)nc(N)c2cc1OC (stereo not drawn) [doxazosin hydrochloride] |  |  |  |  |  |  |  |  | approximately 5 mg/mL |  |
| COc1cc2nc(N3CCN(C(=O)c4ccco4)CC3)nc(N)c2cc1OC [prazosin] |  |  |  |  |  |  |  |  | 1.4 mg/mL |  |
| C[C@H](Cc1cc2c(c(C(N)=O)c1)N(CCCO)CC2)NCCOc1ccccc1OCC(F)(F)F [silodosin] |  |  |  | progression of axial myopia was suppressed |  |  |  | progression of myopia was suppressed |  |  |
| CCOc1ccccc1OCCN[C@H](C)Cc1ccc(OC)c(S(N)(=O)=O)c1 [tamsulosin] |  |  |  | progression of axial myopia was suppressed |  |  |  | progression of myopia was suppressed |  |  |
| COc1ccccc1N1CCN(CCCNc2cc(=O)n(C)c(=O)n2C)CC1 [urapidil] | 0.217±0.014 mm | 0.233±0.020 mm | progression of myopia was suppressed |  | −5.51±6.29 D | 0.33±7.07 D | progression of myopia was suppressed |  | 25 mg/mL |  |
